Test results reported in patent US20230046728A1, “TECHNOLOGIES USEFUL FOR ASSESSING PERMEABILITY” (FOG PHARMACEUTICALS, INC., priority 2019, published 2023).

Assays:
DhaA enzyme = DhaA enzyme (Rhodococcus rhodochrous, UniProt P0A3G2); test: Cell free peptide/DhaA conversion, Mass Shifted Peptide Theoretical Max signal (Example 6); type: biochemical; settings: DhaA converts —Cl input agent into —OH product agent, MS signal
Description: For the cell free systems, DPLs were diluted in a 500 μL DPW plate (library dilution plate). Individual peptides were diluted individually in low-bind tubes until making the final working dilution in PBS. At this point, the individual peptides were transferred to the library dilution plate. By having all final dilutions in one plate, a multichannel was used to transfer the diluted peptides to the cell free plates. The same design as “Source Plate” was used for the cell assay. For the peptide only plate, 45 μL of PBS was added to each well and 5 μL of the diluted library/peptide was added in triplicates. For peptide/DhaA plate, 5 μL of 50 μM DhaA enzyme was added, followed by 40 μL of PBS and 5 μL of the diluted library/peptide. Both plates were kept at the bench top thermomixer at 350 rpm and 37 ° C. overnight. The next day, 2 mL of a cell free solution was prepared with 1 mL of DMSO, 20 μL of PepMix and 980 μL of a 1:1 ratio of ACN/0.1% FA and H2O/0.1% FA. 5 μL of the cell free solution was added to a 384 well plate, followed by 45 μL of the cell free sample.
(§1) Once all samples were added (including cell free), the plate was placed in an autosampler of a mass spectrometer. For the mass spectrometry analysis, methods from example 1 were employed.
Results from certain assessment were presented blow. Cell crash method was utilized. Mass Shifted Peptide Theoretical Max signal is signal of an agent comprising —OH obtained when using the DhaA to convert input agent comprising —Cl into product agent comprising —OH form without involving cells (multiple agents may be converted simultaneously; in some embodiments, can be performed library by library). In some embodiments, each library pool plus positive and negative references was tested in a single well, which in some cases contain about a million or so cells. Each library pool is an individually prepared library with no purifications—all members mixed together along with side products, etc. “Cell Penetration Score” is calculated by dividing “Mass Shifted Peptide Signal in Cells” by “Mass Shifted Peptide Theoretical Max Signal” for each pair of replicates, then averaging those values across replicates; additionally or alternatively, COR and/or RPF may also be utilized.

[1] = system: Expi293 cells transfected with His-Halotag; test: Library cell penetration assay, cell crash method (Example 6); type: in vitro ADME, human
Description: Animal cells (e.g., Expi293 cells or human HEK 293 cells) were seeded in tissue culture plates and cultured in Opti-MEM media. The cells were set in PETG flasks at a concentration of 6×10^5 cells/mL and a volume of 30 mL. The cell viability was checked to be above 90-93%. The flasks were placed in a shaking incubator at 300 rpm in 8% CO2.
After 24 hours of incubation, for each flask, one 1.5-mL Lo-bind tube and one 2-mL Lo-Bind tube were prepared. In the 1.5-mL tube, 30 μg of polyhistidine-tagged halotag (His-Halotag) plasmid and Opti-MEM media were added to provide a 1-mL mixture. In the 2-mL Lo-Bind tube, 60 μL of ExpiFectamine and 940 μL of Opti-MEM were added. After 5 minutes, the plasmid/Opti-MEM mixture was added to the ExpiFectamine/Opti-MEM mixture. The combined mixture was placed in an incubator at room temperature for 20 minutes, which was subsequently added to the flask.
After 48 hours of transfection, the transfected cells were checked for viability (90% or higher). The transfected cells were transferred to a protein Lo-Bind Eppendorf 96-well deep well plate (1000 μL), where each well contained 1 million cells in 500 μL of Expi293 media.
Solutions of candidate compounds, either individual peptides or peptides from a peptide library (DPLs), were received at a stock concentration of 10 mM and diluted in DMSO and kept in a “Source Plate”. For DPLs, the peptide concentration in the “Source Plate” was 1 mM, whereas for individual peptides, the concentration was either 100 μM (for a final concentration of 100 nM) or 10 μM (for a final concentration of 10 nM). […] of the DPL or individual peptide solution was added in triplicates to the 96-well plate. The cells were kept in a shaking incubator at 300 rpm and 37 ° C., 8% CO2 overnight for about 18-20 hours.
The following day, one of the following two methods was performed: i) capture beads method or ii) cell crash method.
Cell crash method: the 96-well plate was placed in the centrifuge at 300 g for 5 minutes. 720 μL of the supernatant was removed. The cells were resuspended in residual 200 μL of media. The suspensions were transferred to a 96-well v-bottom plate, which was placed in the centrifuge at 300 g for an additional 5 minutes. All remaining media was removed. The cell pellets were washed with 200 μL of PBS, mixed and placed back in the centrifuge at 300 g and 4 ° C. for an additional 5 minutes. The supernatant was removed and 80 μL of PBS was added.
80 μL of eluted proteins/peptides from the capture beads method or the PBD solution from the cell crash method was transferred into a deepwell low binding plate (500 μL). 80 μL of ammonium hydroxide was added. The plate was kept on a shaker at 37 ° C. for 3 hours. The plate was dried in a speedvac overnight.
The following day, the dried cell pellet was resuspended in 70 μL of 47.5% water with 0.1% FA/47.5% ACN with 0.1% FA/10 μM pepmix (10 mM stock)/5% fresh DMSO. The mixture was let sit in the plate for 1 hour to allow the dissolution of the pellet. If the sample appeared cloudy, more resuspension solution was added (50 μL at a time). 50 μL was transferred directly to the mass spec plate and the plate was sealed with the 384-well plate seal.
as §1
Results from certain assessment were presented blow. Cell crash method was utilized. Mass Shifted Peptide Theoretical Max signal is signal of an agent comprising —OH obtained when using the DhaA to convert input agent comprising —Cl into product agent comprising —OH form without involving cells (multiple agents may be converted simultaneously; in some embodiments, can be performed library by library). In some embodiments, each library pool plus positive and negative references was tested in a single well, which in some cases contain about a million or so cells. […]

[2] = MS signal of unconverted —Cl agent from cells, library pool or individual peptide
[3] = MS signal of —OH agent from cells, library pool or individual peptide
[4] = Mass Shifted Peptide Signal in Cells divided by Mass Shifted Peptide Theoretical Max Signal, averaged across replicates
[5] = Mass Shifted Peptide Signal in Cells divided by Theoretical Max Signal per replicate pair, averaged
[6] = library pool tested as mixture, MS signal of unconverted —Cl agent
[7] = library pool tested as mixture, MS signal of —OH agent

Chain of DhaA enzyme (P0A3G2 whole entry): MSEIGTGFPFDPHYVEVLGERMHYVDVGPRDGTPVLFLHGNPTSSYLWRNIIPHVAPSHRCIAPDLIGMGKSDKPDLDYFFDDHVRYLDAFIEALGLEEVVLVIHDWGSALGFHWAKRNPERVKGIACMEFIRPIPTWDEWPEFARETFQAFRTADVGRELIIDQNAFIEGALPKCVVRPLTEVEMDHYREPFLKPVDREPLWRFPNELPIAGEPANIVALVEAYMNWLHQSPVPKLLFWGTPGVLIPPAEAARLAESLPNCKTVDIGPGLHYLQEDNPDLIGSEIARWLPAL

Compound | Mass Shifted Peptide Theoretical Max Signal (DhaA enzyme) | Peptide Signal in Cells (from cells; agents comprising —Cl) [1, 2] | Mass Shifted Peptide Signal in Cells [1, 3] | Cell Penetration Score [1, 4] | Cell Penetration Score [1, 5] | Peptide Signal in Cells (from cells; agents comprising —Cl) [1, 6] | Mass Shifted Peptide Signal in Cells [1, 7]
HaloTagO2-Leu-Thr-Phe-ReN-Thr-Tyr-Trp-Ala-Gln-Cba-Az-Ser-Ala-Ala-NH2 [PEP000129] | 6E+06 | 0E+00 | 1E+06 | 19 | – | – | –
HaloTagO2-Leu-Thr-Phe-ReN-Glu-Tyr-Trp-Ala-Gln-Cba-Az-Ser-Ala-Ala-NHMe [PEP000131] | 3E+06 | 0E+00 | 1E+05 | 3 | – | – | –
HaloTagO2-Leu-Thr-Phe-ReN-Glu-Tyr-Trp-Ala-Thr-Cba-Az-Ser-Ala-Ala-NHMe [PEP000137] | 6E+06 | 0E+00 | 4E+05 | 6 | – | – | –
HaloTagO2-Leu-Thr-Phe-ReN-Ala-Tyr-Trp-Ala-Gln-Cba-Az-Ser-Ala-Ala-NHMe [PEP000130] | 7E+06 | 5E+03 | 2E+06 | 27 | – | – | –
HaloTagO2-Leu-Thr-Phe-ReN-Glu-Tyr-Trp-Ala-Ala-Cba-Az-Ser-Ala-Ala-NHMe [PEP000135] | 5E+06 | 0E+00 | 3E+05 | 7 | – | – | –
HaloTagO2-Leu-Thr-Phe-ReN-Glu-Tyr-Trp-Ala-Gln-Cba-Az-Ser-Ala-Ala-NHMe [PEP000136] | 4E+06 | 0E+00 | 1E+04 | 0 | – | – | –
HaloTagO2-Leu-Thr-Phe-ReN-Glu-Tyr-Trp-Ala-Thr-Cba-Az-Ser-Ala-Ala-NH2 [PEP000134] | 6E+06 | 3E+03 | 1E+05 | 2 | – | – | –
HaloTagO2-Leu-Thr-Phe-ReN-Ala-Tyr-Trp-Ala-Gln-Cba-Az-Ser-Ala-Ala-NH2 [PEP000127] | 8E+06 | 0E+00 | 1E+06 | 17 | – | – | –
HaloTagO2-Leu-Thr-Phe-ReN-Glu-Tyr-Trp-Ala-Gln-Cba-Az-Ser-Ala-Ala-NH2 [PEP000128] | 4E+06 | 0E+00 | 1E+05 | 3 | – | – | –
HaloTagO2-Leu-Thr-Phe-ReN-Thr-Tyr-Trp-Ala-Gln-Cba-Az-Ser-Ala-Ala-NHMe [PEP000132] | 6E+06 | 0E+00 | 1E+06 | 20 | – | – | –
HaloTagO2-Leu-Thr-Phe-ReN-Glu-Tyr-Trp-Ala-Ala-Cba-Az-Ser-Ala-Ala-NH2 [PEP000133] | 5E+06 | 0E+00 | 3E+05 | 5 | – | – | –
CNC(=O)[C@H](C)NC(=O)[C@H](C)NC(=O)[C@H](CO)NC(=O)[C@]1(C)CCCC=CCCCCCC[C@@](C)(NC(=O)[C@H](Cc2ccccc2)NC(=O)[C@@H](NC(=O)[C@H](CC(C)C)NC(=O)CCC(=O)NCCOCCOCCCCCCCl)[C@@H](C)O)C(=O)N[C@@H](C)C(=O)N[C@@H](Cc2ccc(O)cc2)C(=O)N[C@@H](Cc2c[nH]c3ccccc23)C(=O)N[C@@H](C)C(=O)N[C@@H](CCC(N)=O)C(=O)N[C@@H](CC2CCC2)C(=O)N1 [PEP000119, HaloTagO2-Leu-Thr-Phe-R8-Ala-Tyr-Trp-Ala-Gln-Cba-S5-Ser-Ala-Ala-NHMe] | – | – | – | – | 304 | 1E+07 | 2E+07
CC(C)C[C@H](NC(=O)CCC(=O)NCCOCCOCCCCCCCl)C(=O)N[C@H](C(=O)N[C@@H](Cc1ccccc1)C(=O)N[C@]1(C)CCCCCCC=CCCC[C@@](C)(C(=O)N[C@@H](CO)C(=O)N[C@@H](C)C(=O)N[C@@H](C)C(N)=O)NC(=O)[C@H](CC2CCC2)NC(=O)[C@H](CCC(N)=O)NC(=O)[C@H](C)NC(=O)[C@H](Cc2c[nH]c3ccccc23)NC(=O)[C@H](Cc2ccc(O)cc2)NC(=O)[C@H](C)NC1=O)[C@@H](C)O [PEP000116, HaloTagO2-Leu-Thr-Phe-R8-Ala-Tyr-Trp-Ala-Gln-Cba-S5-Ser-Ala-Ala-NH2] | – | – | – | – | 475 | 4E+07 | 4E+07
